Experimental data from patent US20260256751A1, “COMBINATION OF BETA-2-ADRENERGIC RECEPTOR AGONISTS AND GLP-1 RECEPTOR AGONISTS FOR USE IN TREATING HYPERGLYCAEMIA” (ATROGI AB, priority 2023, published 2026).

How the values were obtained:
[1] = system: differentiated L6-myotubes; test: Glucose uptake screen (Biological example 1 of WO 2019/053427); assay type: cell-based; settings: compound at 10 μM, activity relative to isoproterenol at 10 μM, read-out: Biological example 1 of WO 2019/053427 (GU)
Procedure, shortened: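 Uptake was read out as ^3H-2-deoxyglucose (50 nM, 10 min) radioactivity in NaOH lysates. Beforehand, overnight-starved, differentiated L6 myotubes received compound at 1×10^−5 M with ICI-118551 present for 1 h 40 min, followed by fresh agonist for a further 20 min in glucose-free medium.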

[2] = system: differentiated L6-myotubes; test: cAMP production relative to isoprenaline (Biological example 2 of WO 2019/053427); assay type: cell-based; settings: 0.25 h, compound at 10 μM, activity relative to isoproterenol at 10 μM
Procedure, shortened: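 Values are cAMP levels relative to isoprenaline at equal concentration (final 1×10^−5 M for both). Stimulation lasted 15 min in differentiated L6 myotubes, using HBSS buffer (pH 7.4) containing 1 mM IBMX, 5 mM HEPES and 1% BSA.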

Structure (SMILES) | Emax at 10 µM [1] | Emax at 10 µM [2]
COc1ccc(C[C@@H]2CC[C@H]([C@@H](O)c3cncc(F)c3)N2)cc1 [Compound 377, (S)-{(2R,5S)-5-[(p-methoxyphenyl)methyl]-2-pyrrolidinyl}(5-fluoro-3-pyridyl)methanol] | > 75% | < 25%
COc1ccc(C[C@@H]2CC[C@H]([C@H](O)c3cncc(F)c3)N2)cc1 [Compound 378, (R)-{(2R,5S)-5-[(p-methoxyphenyl)methyl]-2-pyrrolidinyl}(5-fluoro-3-pyridyl)methanol] | > 75% | < 25%
COc1ccc(C[C@H]2CC[C@H]([C@H](O)c3cncc(F)c3)N2)cc1 [Compound 379, (R)-{(2R,5R)-5-[(p-methoxyphenyl)methyl]-2-pyrrolidinyl}(5-fluoro-3-pyridyl)methanol] | > 75% | < 25%
COc1ccc(C[C@H]2CC[C@H]([C@@H](O)c3cncc(F)c3)N2)cc1 [Compound 380, (S)-{(2R,5R)-5-[(p-methoxyphenyl)methyl]-2-pyrrolidinyl}(5-fluoro-3-pyridyl)methanol] | > 75% | < 25%
CC(C)(NC[C@H](O)c1cccc(F)c1)[C@H]1CC[C@H](N)CC1 [Compound 381, (R)-1-(m-fluorophenyl)-2-{1-methyl-1-[(1r,4R)-4-aminocyclohexyl]ethylamino}-1-ethanol] | 50 to 75% | < 25%
CC(C)(C[C@H]1CC[C@H](NS(C)(=O)=O)CC1)NC[C@H](O)c1cccc(F)c1 [Compound 382, (R)-2-{1,1-dimethyl-2-[(1r,4R)-4-(mesylamino)cyclohexyl]ethylamino}-1-(m-fluorophenyl)-1-ethanol] | > 75% | 25 to 50%
CC(=O)N[C@H]1CC[C@H](CC(C)(C)NC[C@H](O)c2cccc(F)c2)CC1 [Compound 383, N-[(1R,4r)-4-{2-[(R)-2-(m-fluorophenyl)-2-hydroxyethylamino]-2-methylpropyl}cyclohexyl]acetamide] | > 75% | 25 to 50%
CC(C)(C[C@H]1CC[C@H](NC(=O)c2ccccc2)CC1)NC[C@H](O)c1cccc(F)c1 [Compound 384, N-[(1R,4r)-4-{2-[(R)-2-(m-fluorophenyl)-2-hydroxyethylamino]-2-methylpropyl}cyclohexyl]benzamide] | > 75% | > 75%
CC(C)(NC[C@H](O)c1cccc(F)c1)[C@H]1CC[C@H](NS(C)(=O)=O)CC1 [Compound 385, (R)-1-(m-fluorophenyl)-2-{1-methyl-1-[(1r,4R)-4-(mesylamino)cyclohexyl]ethylamino}-1-ethanol] | 50 to 75% | < 25%
CC(=O)N[C@H]1CC[C@H](C(C)(C)NC[C@H](O)c2cccc(F)c2)CC1 [Compound 386, N-[(1R,4r)-4-{1-[(R)-2-(m-fluorophenyl)-2-hydroxyethylamino]-1-methylethyl}cyclohexyl]acetamide] | > 75% | < 25%
CC(C)(C)NC[C@H](O)c1cccc(C#N)n1 [Compound 387, 6-[(S)-2-(tert-butylamino)-1-hydroxyethyl]-2-pyridinecarbonitrile] | > 75% | 25 to 50%
O[C@H](c1cccc(F)c1)C12CCC(Cc3ccccc3)(CC1)N2 [Compound 388, (R)-(4-benzyl-7-azabicyclo[2.2.1]hept-1-yl)(m-fluorophenyl)methanol] | > 75% | 25 to 50%
O[C@@H](c1cccc(F)c1)C12CCC(Cc3ccccc3)(CC1)N2 [Compound 389, (S)-(4-benzyl-7-azabicyclo[2.2.1]hept-1-yl)(m-fluorophenyl)methanol] | 50 to 75% | < 25%
CC(C)(NC[C@H](O)c1cncc(F)c1)[C@H]1CC[C@H](C(=O)O)CC1 [Compound 390, (1R,4r)-8-[(R)-2-(5-fluoro-3-pyridyl)-2-hydroxyethylamino]-7-hydroxy-p-menthan-7-one] | 50 to 75% | < 25%
O[C@@H](c1cccc(F)c1)[C@H]1CC[C@@H](Cc2ccc(Cl)cc2)N1 [Compound 391, (S)-{(2R,5S)-5-[(p-chlorophenyl)methyl]-2-pyrrolidinyl}(m-fluorophenyl)methanol] | 50 to 75% | < 25%
O[C@H](c1cccc(F)c1)[C@H]1CC[C@@H](Cc2ccc(Cl)cc2)N1 [Compound 392, (R)-{(2R,5S)-5-[(p-chlorophenyl)methyl]-2-pyrrolidinyl}(m-fluorophenyl)methanol] | > 75% | < 25%
O[C@H](c1cccc(F)c1)[C@H]1CC[C@H](Cc2ccc(Cl)cc2)N1 [Compound 393, (R)-{(2R,5R)-5-[(p-chlorophenyl)methyl]-2-pyrrolidinyl}(m-fluorophenyl)methanol] | > 75% | < 25%

Structure (SMILES) | Emax at 10 µM [1] | Emax at 10 µM [2]
O[C@@H](c1cccc(F)c1)[C@H]1CC[C@H](Cc2ccc(Cl)cc2)N1 [Compound 394, (S)-{(2R,5R)-5-[(p-chlorophenyl)methyl]-2-pyrrolidinyl}(m-fluorophenyl)methanol] | 50 to 75% | < 25%
O[C@@H](c1cccc(F)c1)C12CCC(COCc3ccc(Cl)cc3)(CC1)N2 [Compound 395, (S)-(4-{[(p-chlorophenyl)methoxy]methyl}-7-azabicyclo[2.2.1]hept-1-yl)(m-fluorophenyl)methanol] | 50 to 75% | < 25%
O[C@H](c1cccc(F)c1)C12CCC(COCc3ccc(Cl)cc3)(CC1)N2 [Compound 396, (R)-(4-{[(p-chlorophenyl)methoxy]methyl}-7-azabicyclo[2.2.1]hept-1-yl)(m-fluorophenyl)methanol] | > 75% | < 25%
CC(C)(C)NC[C@H](O)c1cccc(C(F)(F)F)n1 [Compound 397, (S)-2-(tert-butylamino)-1-[6-(trifluoromethyl)-2-pyridyl]-1-ethanol] | > 75% | < 25%
CCOC(=O)CO[C@H]1CC[C@H](C(C)(C)NC[C@H](O)c2cccc(F)c2)CC1 [Compound 398, ethyl[(1R,4r)-4-{1-[(R)-2-(m-fluorophenyl)-2-hydroxyethylamino]-1-methylethyl}cycloehxyloxy]acetate] | > 75% | < 25%
CC(C)(C[C@H]1CC[C@@H](C#N)CC1)NC[C@H](O)c1cccc(F)c1 [Compound 399, (1S,4s)-4-{2-[(R)-2-(m-fluorophenyl)-2-hydroxyethylamino]-2-methylpropyl)cyclohexanecarbonitrile] | > 75% | 25 to 50%
COc1ccc(CC23CCC([C@@H](O)c4cccc(F)c4)(CC2)N3)cc1 [Compound 400, (S)-(m-fluorophenyl)(4-[(p-methoxyphenyl)methyl]-7-azabicyclo[2.2.1]hept-1-yl}methanol] | 50 to 75% | < 25%
COc1ccc(CC23CCC([C@H](O)c4cccc(F)c4)(CC2)N3)cc1 [Compound 401, (R)-(m-fluorophenyl){4-[(p-methoxyphenyl)methyl]-7-azabicyclo[2.2.1]hept-1-yl}methanol] | > 75% | < 25%
CC(C)(NC[C@H](O)c1cccc(F)c1)[C@H]1CC[C@H](OCC(=O)O)CC1 [Compound 402, [(1R,r)-4-{1-[(R)-2-(m-fluorophenyl)-2-hydroxyethylamino]-1-methylethyl}cyclohexyloxy]acetic acid] | 50 to 75% | < 25%
O[C@@H](c1cncc(F)c1)[C@H]1CC[C@@H](Cc2ccc(Cl)cc2)N1 [Compound 403, (S)-{(2R,5S)-5-[(p-chlorophenyl)methyl]-2-pyrroldiinyl}(5-fluoro-3-pyridyl)methanol] | 50 to 75% | < 25%
O[C@H](c1cncc(F)c1)[C@H]1CC[C@@H](Cc2ccc(Cl)cc2)N1 [Compound 404, (R)-{(2R,5S)-5-[(p-chlorophenyl)methyl]-2-pyrrolidinyl}(5-fluoro-3-pyridyl)methanol] | > 75% | < 25%
O[C@@H](c1cncc(F)c1)[C@H]1CC[C@H](Cc2ccc(Cl)cc2)N1 [Compound 405, (S)-{(2R,5R)-5-[(p-chlorophenyl)methyl]-2-pyrrolidinyl}(5-fluoro-3-pyridyl)methanol] | > 75% | < 25%
O[C@H](c1cncc(F)c1)[C@H]1CC[C@H](Cc2ccc(Cl)cc2)N1 [Compound 406, (R)-{(2R,5R)-5-[(p-chlorophenyl)methyl]-2-pyrrolidinyl}(5-fluoro-3-pyridyl)methanol] | > 75% | < 25%
CCOC(=O)CO[C@H]1CC[C@@H](C(C)(C)NC[C@H](O)c2cccc(F)c2)CC1 [Compound 407, ethyl [(1S,4s)-4-{1-[(R)-2-(m-fluorophenyl)-2-hydroxyethylamino]-1-methylethyl}cyclohexyloxy]acetate] | 50 to 75% | < 25%
CC(C)(NC[C@H](O)c1cccc(F)c1)[C@H]1CC[C@@H](OCC(=O)O)CC1 [Compound 408, [(1S,4s)-4-{1-[(R)-2-(m-fluorophenyl)-2-hydroxyethylamino]-1-methylethyl}cyclohexyloxy]acetic acid] | 50 to 75% | < 25%
CCOC(=O)CO[C@H]1CC[C@H](C(C)(C)NC[C@H](O)c2cncc(F)c2)CC1 [Compound 409, ethyl [(1R,4r)-4-{1-[(R)-2-(5-fluoro-3-pyridyl)-2-hydroxyethylamino]-1-methylethyl}cyclohexyloxy]acetate] | > 75% | < 25%
